Each compound was assayed on asymmetric di-methyl PABP1 in RKO cells (assay: RKO methylation assay: In Cell Western (ICW) for asymmetric di-methyl PABP1 (PABP1me2a)). Details: Homo sapiens, RKO, 48 h, Cellular-based (PABP1me2a) ICW (In Cell Western) assay.
From the text: RKO adherent cells were purchased from ATCC (American Type Culture Collection), Manassas, Va., USA. DMEM/Glutamax medium, penicillin-streptomycin, heat inactivated fetal bovine serum, 0.05% trypsin and D-PBS were purchased from Life Technologies, Grand Island, N.Y., USA. Odyssey blocking buffer, 800CW goat anti-rabbit IgG (H+L) antibody, and Licor Odyssey infrared scanner were purchased from Licor Biosciences, Lincoln, Nebr., USA. Asymmetric di-methyl PABP1 antibody was purchased from Cell Signaling Technology, Danvers, Mass., USA. Methanol was purchased from VWR, Franklin, Mass., USA. 10% Tween 20 was purchased from KPL, Inc., Gaithersburg, Md., USA. Paraformaldehyde (PFA) was purchased from EM Sciences. DRAQ5 was purchased from Biostatus Limited, Leicestershire, UK.
RKO adherent cells were maintained in growth medium (DMEM/Glutamax medium supplemented with 10% v/v heat inactivated fetal bovine serum and 100 units/mL penicillin-streptomycin) and cultured at 37° C. under 5% CO2.
Cell treatment, In Cell Western (ICW) for detection of asymmetric di-methyl PABP1 and DNA content: RKO cells were seeded in assay medium at a concentration of 30,000 cells per mL to a poly-D-lysine coated 384 well culture plate (BD Biosciences 356697) with 50 μL per well. Compound (100 nL) from a 96-well source plate was added directly to 384 well cell plate. Plates were incubated at 37° C., 5% CO2 for 48 hours. After two days of incubation, plates were brought to room temperature outside of the incubator for ten minutes and blotted on paper towels to remove cell media. Cells were fixed for 20 minutes at room temperature by adding 50 ul of 8% PFA followed by aspiration of supernatant with the Biotek EL406 plate washer. Cells were then permeabilized by addition of 50 μL of ice cold 100% methanol directly to each well and incubated for 30 min at room temperature. After 30 min, plates were transferred to a Biotek EL406 plate washer and washed 2 times with 100 μL per well of wash buffer (1×PBS). Next 60 μL per well of Odyssey blocking buffer (Odyssey Buffer with 0.1% Tween 20 (v/v)) were added to each plate and incubated 1 hour at room temperature. Blocking buffer was removed and 20 μL per well of primary antibody was added (asymmetric-methyl PABP1) diluted 1:400 in Odyssey buffer with 0.1% Tween 20 (v/v)) and plates were incubated overnight (16 hours) at 4° C. Plates were washed 5 times with 100 μL per well of wash buffer. Next 20 μL per well of secondary antibody was added (1:800 800CW goat anti-rabbit IgG (H+L) antibody, 1:2000 DRAQ5 in Odyssey buffer with 0.1% Tween 20 (v/v)) and incubated for 1 hour at room temperature. The plates were washed 5 times with 100 μL per well wash buffer then 2 times with 100 μL per well of water. Plates were allowed to dry at room temperature then imaged on the Licor Odyssey machine which measures integrated intensity at 700 nm and 800 nm wavelengths. Both 700 and 800 channels were scanned.
First, the ratio for each well was determined by:
Each plate included fourteen control wells of DMSO only treatment (minimum inhibition) as well as fourteen control wells for maximum inhibition treated with 20 μM of a reference compound. The average of the ratio values for each control type was calculated and used to determine the percent […] for each test well in the plate. Reference compound was serially diluted three-fold in DMSO for a total of nine test concentrations, beginning at 20 μM.
Percent inhibition was determined and IC50 curves were generated using triplicate wells per concentration of compound.

Row | SMILES | IC50 [nM]
1 | CNC[C@@H](O)COc1ccc(Cl)c(-c2nc(-c3c(C)noc3C)c(C)c(N3Cc4cn(CC(F)F)nc4C3)n2)c1 [Example 27] | 115
2 | CNC[C@@H](O)COc1ccc(Cl)c(-c2nc(-c3c(C)noc3C)c(C)c(N3Cc4cnn(C(C)C)c4C3)n2)c1 [Example 28] | 41
3 | CNC[C@@H](O)COc1ccc(Cl)c(-c2nc(-c3c(C)noc3C)c(C)c(N3C[C@H]4CN(CC(F)F)C[C@@H]4C3)n2)c1 [Example 29] | 263
4 | CNC[C@@H](O)COc1ccc(Cl)c(-c2nc(-c3c(C)noc3C)c(C)c(N3C[C@H]4CN(CC(F)F)C[C@H]4C3)n2)c1 [Example 30] | 166
5 | CNC[C@@H](O)COc1ccc(Cl)c(-c2nc(-c3c(C)noc3C)c(C)c(N3CC4(CCN(C(=O)OC)CC4)C3)n2)c1 [Example 261] | 53.9

Continued by falling IC50, values first:

Row | IC50 [nM] | SMILES
6 | 452 | CNC[C@@H](O)COc1ccc(Cl)c(-c2nc(-c3c(C)noc3C)c(C)c(N3CCC4(C3)OCCO4)n2)c1 [Example 25]
7 | 294 | CNC[C@H](O)COc1ccc(Cl)c(-c2nc(-c3c(C)noc3C)c(C)c(N3CC4(CCN(C(=O)OC)CC4)C3)n2)c1 [Example 248]
8 | 188 | CNC[C@@H](O)COc1ccc(C(F)(F)F)c(-c2nc(-c3c(C)noc3C)c(C)c(N3Cc4cccnc4C3)n2)c1 [Example 24]
9 | 181 | CNC[C@@H](O)COc1ccc(C(F)(F)F)c(-c2nc(-c3c(C)noc3C)c(C)c(N3Cc4cn(C(C)C)nc4C3)n2)c1 [Example 22]
10 | 111 | CNC[C@@H](O)COc1ccc(C(F)(F)F)c(-c2nc(-c3c(C)noc3C)c(C)c(N3Cc4cnn(C(C)C)c4C3)n2)c1 [Example 23]
11 | 66 | CNC[C@@H](O)COc1ccc(Cl)c(-c2nc(-c3c(C)noc3C)c(C)c(N3Cc4cnn(CC(F)F)c4C3)n2)c1 [Example 26]

What follows are compounds tested against T1, Human CARM1 (PRMT4) (Homo sapiens, UniProt Q86X55) (assay: CARM1 enzyme assay on peptide substrates (3H-SAM Flashplate)). Details: Biochemical assay; CARM1 0.25 nM, 3H-SAM 30 nM, peptide 250 nM; read-out: Biochem IC50.
T1 construct: Flag-CARM1-His was eluted with 200 ug/ml FLAG peptide in buffer A; made in house; host or cells: HEK 293F cells infected with recombinant baculovirus (pFastBacMam)
T1 sequence (Q86X55 1-585 isoform Q86X55-1): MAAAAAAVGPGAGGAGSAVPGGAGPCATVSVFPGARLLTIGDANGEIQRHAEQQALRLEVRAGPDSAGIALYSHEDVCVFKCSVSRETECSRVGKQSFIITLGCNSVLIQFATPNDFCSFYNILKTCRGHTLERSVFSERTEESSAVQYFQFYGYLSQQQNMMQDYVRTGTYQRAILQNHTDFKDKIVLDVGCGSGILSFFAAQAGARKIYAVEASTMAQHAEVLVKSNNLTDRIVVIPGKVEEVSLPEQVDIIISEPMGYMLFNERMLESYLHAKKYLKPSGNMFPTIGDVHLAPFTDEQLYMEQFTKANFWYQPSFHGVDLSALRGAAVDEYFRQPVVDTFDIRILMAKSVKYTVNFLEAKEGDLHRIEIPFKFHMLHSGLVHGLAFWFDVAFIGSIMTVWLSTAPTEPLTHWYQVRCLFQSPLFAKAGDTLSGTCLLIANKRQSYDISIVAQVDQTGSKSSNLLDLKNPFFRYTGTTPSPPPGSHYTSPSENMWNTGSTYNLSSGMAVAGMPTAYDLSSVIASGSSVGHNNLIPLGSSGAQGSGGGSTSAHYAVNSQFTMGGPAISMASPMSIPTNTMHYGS
From the text: S-adenosylmethionine (SAM), S-adenosylhomocysteine (SAH), bicine, Tween20, dimethylsulfoxide (DMSO), bovine skin gelatin (BSG), sodium butyrate and Tris(2-carboxyethyl)phosphine hydrochloride solution (TCEP) were purchased from Sigma-Aldrich at the highest level of purity possible. ^3H-SAM was purchase from American Radiolabeled Chemicals with a specific activity of 80 Ci/mmol. 384-well streptavidin Flashplates were purchased from PerkinElmer.
Peptide representative of human histone H3 residues 16-30 was synthesized with an N-terminal linker-affinity tag motif and a C-terminal amide cap by 21st Century Biochemicals. […] The sequence was Biot-Ahx-[…]-amide and contained a monomethylated arginine at position 26 (SEQ ID NO.:1).
The gene sequence encoding isoform1 containing a deletion of amino acids 539-561 was amplified subsequently and subcloned into pFastBacMam (Viva Biotech).
Recombinant baculovirus were generated according to Bac-to-Bac kit instructions (Life Technologies). Protein over-expression was accomplished by infecting exponentially growing HEK 293F cell culture at 1.3×10^6 cell/ml with virus (MOI=10) in the presence of 8 mM sodium butyrate. Infections were carried out at 37° C. for 48 hours, harvested by centrifugation, and stored at −80° C. for purification.
Column was washed with 500 mM NaCl in buffer A and Flag-CARM1-His was eluted with 200 ug/ml FLAG peptide in buffer A. Pooled fractions were dialyzed in 20 mM Tris, 150 mM NaCl, 5% glycerol and 1 mM DTT, pH 7.8.
The assays were all performed in a buffer consisting of 20 mM Bicine (pH=7.6), 1 mM TCEP, 0.005% BSG, and 0.002% Tween 20, prepared on the day of use. Compounds in 100% DMSO (1 ul) were spotted into a polypropylene 384-well V-bottom plates (Greiner) using a Platemate Plus outfitted with a 384-channel head (Thermo Scientific). DMSO (1 ul) was added to Columns 11, 12, 23, 24, rows A-H for the maximum signal control and 1 ul of SAH, a known product and inhibitor of CARM1, was added to columns 11, 12, 23, 24, rows I-P for the minimum signal control. A cocktail (40 ul) containing the CARM1 enzyme was added by Multidrop Combi (Thermo-Fisher). The compounds were allowed to incubate with CARM1 for 30 min at room temperature, then a cocktail (10 ul) containing ^3H-SAM and peptide was added to initiate the reaction (final volume=51 ul). The final concentrations of the components were as follows: CARM1 was 0.25 nM, ^3H-SAM was 30 nM, peptide was 250 nM, SAH in the minimum signal control wells was 1 mM, and the DMSO concentration was 2%. The assays were stopped by the addition of non-radiolabeled SAM (10 ul) to a final concentration of 300 uM, which dilutes the ^3H-SAM to a level where its incorporation into the peptide substrate is no longer detectable. 50 ul of the reaction in the 384-well polypropylene plate was then transferred to a 384-well Flashplate and the biotinylated peptides were allowed to bind to the streptavidin surface for at least 1 hour before being washed once with 0.1% Tween20 in a Biotek ELx405 plate washer. The plates were then read in a PerkinElmer TopCount plate reader to measure the quantity of ^3H-labeled peptide bound to the Flashplate surface, measured as disintegrations per minute (dpm) or alternatively, referred to as counts per minute (cpm).
where dpm=disintegrations per minute, cmpd=signal in assay well, and min and max are the respective minimum and maximum signal controls.
where top and bottom are the normally allowed to float, but may be fixed at 100 or 0 respectively in a 3-parameter fit. The Hill Coefficient normally allowed to float but may also be fixed at 1 in a 3-parameter fit. Y is the % inhibition and X is the compound concentration.

Row | SMILES | IC50 [nM]
12 | CNC[C@@H](O)COc1ccc(Cl)c(-c2nc(-c3c(C)noc3C)c(C)c(N3Cc4cn(CC(F)F)nc4C3)n2)c1 [Example 27] | 3.7
13 | CNC[C@@H](O)COc1ccc(Cl)c(-c2nc(-c3c(C)noc3C)c(C)c(N3Cc4cnn(C(C)C)c4C3)n2)c1 [Example 28] | 3.2
14 | CNC[C@@H](O)COc1ccc(Cl)c(-c2nc(-c3c(C)noc3C)c(C)c(N3C[C@H]4CN(CC(F)F)C[C@@H]4C3)n2)c1 [Example 29] | 10.2
15 | CNC[C@@H](O)COc1ccc(Cl)c(-c2nc(-c3c(C)noc3C)c(C)c(N3C[C@H]4CN(CC(F)F)C[C@H]4C3)n2)c1 [Example 30] | 7

The next lines start with the values.

Row | IC50 [nM] | SMILES
16 | 5.6 | CNC[C@@H](O)COc1ccc(Cl)c(-c2nc(-c3c(C)noc3C)c(C)c(N3CCC4(C3)OCCO4)n2)c1 [Example 25]
17 | 5.4 | CNC[C@@H](O)COc1ccc(C(F)(F)F)c(-c2nc(-c3c(C)noc3C)c(C)c(N3Cc4cccnc4C3)n2)c1 [Example 24]
18 | 6.3 | CNC[C@@H](O)COc1ccc(C(F)(F)F)c(-c2nc(-c3c(C)noc3C)c(C)c(N3Cc4cn(C(C)C)nc4C3)n2)c1 [Example 22]
19 | 4.7 | CNC[C@@H](O)COc1ccc(C(F)(F)F)c(-c2nc(-c3c(C)noc3C)c(C)c(N3Cc4cnn(C(C)C)c4C3)n2)c1 [Example 23]
20 | 3.4 | CNC[C@@H](O)COc1ccc(Cl)c(-c2nc(-c3c(C)noc3C)c(C)c(N3Cc4cnn(CC(F)F)c4C3)n2)c1 [Example 26]
